One data set concerns the target T1, human mGlu2 receptor (Homo sapiens, UniProt Q14416).
T1 construct: expressed in transfected cells; host or cells: CHO cells (membrane preparation)
Put plainly: [35S]GTPγS binding assay (mGluR2 negative allosteric modulation). The format is biochemical. The conditions noted are these: for IC50: membranes from CHO cells transfected with human mGlu2 receptor, glutamate 60 μM, pIC50 = −log IC50 (M), read-out: GTPγS - hmGluR2 anGT pIC50 (converted); for Emax: relative maximal effect: maximal % inhibition relative to the control glutamate response, read-out: GTPγS - hmGluR2 anGT Emax. An outline of the steps: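 Negative allosteric modulation read as [35S]GTPγS (0.1 nM) incorporation over 30 min at 30 °C, expressed as % of the response to an EC80-equivalent glutamate concentration. Assay used 7 μg human mGlu2 CHO membrane protein in HEPES pH 7.4 buffer with NaCl, MgCl2, GDP and saponin; bound label collected by filtration.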
Background: GTPγS is a poorly hydrolysed GTP analogue; its binding reports G protein activation.

In a further data set the test system is rats. Put plainly: Reversal of the effect of the mGluR2 PAM JNJ-42153605 on scopolamine-induced hyperlocomotion. Conditions: Rattus norvegicus, 1 h, test compound 60 min before recording, criterion total distance >1500 cm. The format is in vivo. The protocol: 2) Reversal of the Effect of the mGluR2 PAM JNJ-42153605 on Scopolamine-Induced Hyperlocomotion Apparatus
Motor activity was measured in microprocessor-based motor activity arenas (closed gray PVC cylinders with a height of 39 cm and a diameter of 31 cm). Each arena was placed on an infrared LED (8×8 LEDs) lit box (white PVC squared box; 40×40 cm^2; height 12.5 cm. An infrared-sensitive tube camera and a white light source were mounted to the ceiling above the observation chamber to track the animal. The total distance traveled (cm) was recorded and analyzed using the Noldus Ethovision XT Video Tracking System (Version 7.0.418; Noldus, Wageningen, The Netherlands). The intensity of the light within the activity cages (measured in the centre at the level of the floor) ranged between 4 and 8 LUX.
The rats were pretreated with test compound or vehicle at 60 min before the start of the activity recordings and placed into individual cages. The rats were challenged with JNJ-42153605 (3-(cyclopropylmethyl)-7-(4-phenylpiperidin-1-yl)-8-(trifluoromethyl)[1,2,4]triazolo[4,3-a]pyridine; WO2010/130424; Cid et al. J. Med. Chem. 2012, 55, 8770-8789) (20 mg/kg, i.v.) 30 min before the start of the activity recording combined with scopolamine (0.16 mg/kg, i.v.) just before the start of the activity measurements Immediately after the injection of scopolamine, the rats were placed into the activity monitors and total distance travelled over the first 30 min was measured.
Animals receiving the combination of JNJ-42153605 and scopolamine (n=433) almost always travelled a distance of less than 1500 cm (<1500 cm) (only 2.5% of the control rats travelled a distance of more than 1500 cm (>1500 cm)). On the other hand, animals challenged with scopolamine alone (n=215) always travelled a total distance of more than 1500 cm (>1500 cm) and almost always (in 95.8% of the rats) a distance of more than 4400 cm (>4400 cm). […] For reversal of the inhibitory effect of JNJ-42153605 on the scopolamine-induced hyperlocomotion, two all-or-none criteria were adopted: (1) reversal: total distance >1500 cm; (2) normalization: total distance >4400 cm.

Broadly, the Emax is the size of the effect at its maximum, as opposed to the concentration needed. By ED50 is commonly meant the dose at which the effect has come halfway, by size or by number of responders. What is called melting point is the temperature, or range, at which the solid turns liquid.

T1 sequence (Q14416 19-872): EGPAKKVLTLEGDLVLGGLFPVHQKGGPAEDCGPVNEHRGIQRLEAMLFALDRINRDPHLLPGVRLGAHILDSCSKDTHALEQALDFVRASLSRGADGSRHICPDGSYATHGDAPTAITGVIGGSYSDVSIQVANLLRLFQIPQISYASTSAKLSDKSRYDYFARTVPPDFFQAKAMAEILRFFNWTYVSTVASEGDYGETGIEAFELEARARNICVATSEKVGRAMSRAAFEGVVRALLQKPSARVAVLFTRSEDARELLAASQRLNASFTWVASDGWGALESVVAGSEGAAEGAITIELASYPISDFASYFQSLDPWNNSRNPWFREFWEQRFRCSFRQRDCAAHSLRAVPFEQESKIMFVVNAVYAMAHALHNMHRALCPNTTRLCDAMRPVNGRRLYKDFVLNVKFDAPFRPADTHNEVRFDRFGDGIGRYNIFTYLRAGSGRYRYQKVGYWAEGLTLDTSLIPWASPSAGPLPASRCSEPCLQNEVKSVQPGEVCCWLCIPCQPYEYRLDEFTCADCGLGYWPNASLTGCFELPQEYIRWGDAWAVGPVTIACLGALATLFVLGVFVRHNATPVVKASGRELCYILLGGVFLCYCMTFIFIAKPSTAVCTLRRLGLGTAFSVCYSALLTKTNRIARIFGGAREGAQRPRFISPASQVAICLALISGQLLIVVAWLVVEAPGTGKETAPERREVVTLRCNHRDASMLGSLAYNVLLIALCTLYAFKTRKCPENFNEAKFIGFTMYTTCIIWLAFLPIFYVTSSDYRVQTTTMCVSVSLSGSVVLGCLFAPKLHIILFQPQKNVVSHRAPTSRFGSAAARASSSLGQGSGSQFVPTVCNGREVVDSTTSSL

Turning to `COc1cc(-c2cnn3c2C(=O)N(c2ccc(Cl)c(Cl)c2)C[C@@H]3C)ccn1` [compound 142], on human mGlu2 receptor, the IC50 was 6.61e-09 M and the Emax worked out at 105%. Further, the 50% effective dose (ED50) in the data set on rats (Route PO) is 1.99 mg/kg.
In the same order, the values of `CCNc1cc(-c2cnn3c2C(=O)N(c2ccc(C(F)(F)F)c(Cl)c2)C[C@@H]3C)ccn1` [compound 255] are 1.51e-09 M, 107% and 0.79 mg/kg.
With `COc1cc(-c2cnn3c2C(=O)N(c2ccc(C(F)(F)F)c(Cl)c2)C[C@@H]3C)ccn1` [compound 104], on human mGlu2 receptor, the IC50 was 3.72e-09 M and the Emax came out at 108%. In addition, the ED50 in the data set with rats (Route PO) was ≥ 2.5 mg/kg.
As for `CNc1cc(-c2cnn3c2C(=O)N(c2ccc(C(F)(F)F)c(Cl)c2)C[C@@H]3C)cc(C#N)n1` [compound 95], the melting point is 210.61 °C (dec.). Besides, at human mGlu2 receptor, the IC50 was 1.78e-09 M and the Emax was 110%. Besides, the ED50 in the data set on rats (Route PO) is > 2.5 mg/kg.
For `COc1cc(N2C[C@H](C)n3ncc(-c4ccnc(C)c4)c3C2=O)ccc1C(F)(F)F` [compound 12], at human mGlu2 receptor, the IC50 was 1.95e-08 M and the Emax is 104%. The ED50 in the data set on rats (Route PO) stood at 1.25 mg/kg.
As for `Cc1cc(-c2cnn3c2C(=O)N(c2cccc(Cl)c2)C[C@@H]3C)ccn1` [compound 16], at human mGlu2 receptor, the IC50 was 5.13e-08 M and the Emax turned out to be 102%. The ED50 in the data set with rats (Route SC) was ≥ 10 mg/kg.
Turning to `Cc1cc(-c2cnn3c2C(=O)N(c2ccc(OC(F)(F)F)cc2)C[C@@H]3C)ccn1` [compound 152], the melting point was 105.4 °C. For the same compound, on human mGlu2 receptor, the IC50 was 1e-08 M and the Emax amounted to 105%. Also, the ED50 with rats (Route PO) was determined as 1.99 mg/kg.
In the same order, the values of `Cc1cc(-c2cnn3c2C(=O)N(c2ccc(S(F)(F)(F)(F)F)cc2)C[C@@H]3C)ccn1` [compound 4] are 247 °C, 3.31e-09 M, 104% and 1.26 mg/kg.
Taken in the same sequence, the figures for `C[C@H]1CN(c2ccc(C(F)(F)F)cc2)C(=O)c2c(-c3ccnc(C#N)c3)cnn21` [compound 127, 4-[(7S)-7-Methyl-4-oxo-5-[4-(trifluoromethyl)phenyl]-6,7-dihydropyrazolo[1,5-a]pyrazin-3-yl]pyridine-2-carbonitrile] were 155.1 °C, 2.75e-08 M, 103% and 1.99 mg/kg.
As to `Cc1cc(-c2cnn3c2C(=O)N(c2ccc(C(F)(F)F)cc2)C[C@@H]3C)cc(C)n1` [compound 14], on human mGlu2 receptor, the IC50 is 2.4e-08 M and the maximal effect (Emax) amounted to 104%. Moreover, the ED50 in the data set on rats (Route PO) amounted to 5 mg/kg.
Regarding `CNc1cc(-c2cnn3c2C(=O)N(c2ccc(C(F)(F)F)c(Cl)c2)C[C@@H]3C)ccn1` [compound 103], the ED50 in the data set with rats (Route PO) worked out at 0.96 mg/kg.
The compound `COc1cc(-c2cnn3c2C(=O)N(c2ccc(C(F)(F)F)c(OC)c2)C[C@@H]3C)ccn1` [compound 180] returned a melting point of 76.8 °C. At human mGlu2 receptor, the IC50 is 1.32e-08 M and the Emax was 106%. Besides, the ED50 in the data set with rats (Route PO) was ≥ 2.5 mg/kg.
As to `CCNc1cc(-c2cnn3c2C(=O)N(c2ccc(C(F)(F)F)c(C)c2)C[C@@H]3C)ccn1` [compound 256], on human mGlu2 receptor, the IC50 is 3.63e-09 M and the maximum response (Emax) came out at 108%. Further, the ED50 in the data set on rats (Route PO) is ≥ 2.5 mg/kg.
`C[C@H]1CN(c2ccc(C(F)(F)F)cc2)C(=O)c2c(-c3ccnc(N4CCC4)c3)cnn21` [compound 102] showed a melting point of 129.8 °C. Also, on human mGlu2 receptor, the IC50 is 8.32e-09 M and the Emax was determined as 107%. Further, in the data set with rats (Route PO), the ED50 was ≥ 2.5 mg/kg.
As for `CNc1cc(-c2cnn3c2C(=O)N(c2ccc(C(F)(F)F)cc2)C[C@@H]3C)cc(OC)n1` [compound 242], on human mGlu2 receptor, the IC50 was 1.29e-08 M and the Emax worked out at 110%. The ED50 in the data set on rats (Route PO) was > 2.5 mg/kg.
For `CNc1cc(-c2cnn3c2C(=O)N(c2ccc(C(F)(F)F)c(OC)n2)C[C@@H]3C)ccn1` [compound 237], the melting point is 125.82 °C (dec.). Also, on human mGlu2 receptor, the IC50 was 3.16e-09 M and the Emax was 111%. In addition, the ED50 in the data set on rats (Route PO) is 1.99 mg/kg.
`CCNc1cc(-c2cnn3c2C(=O)N(c2ccc(Cl)c(Cl)c2)C[C@@H]3C)ccn1` [compound 257]: at human mGlu2 receptor, the IC50 is 3.63e-09 M and the maximal effect (Emax) stood at 108%. Besides, the ED50 in the data set with rats (Route PO) was ≥ 2.5 mg/kg.
Taken in the same sequence, the figures for `CNc1cc(-c2cnn3c2C(=O)N(c2ccc(C(F)(F)F)c(C)c2)C[C@@H]3C)ccn1` [compound 251] were 6.31e-09 M, 116% and > 0.63 mg/kg.
`CNc1cc(-c2cnn3c2C(=O)N(c2ccc(C(F)(F)F)c(F)c2)C[C@@H]3C)ccn1` [compound 182] had a melting point of 67.8 °C. Besides, on human mGlu2 receptor, the IC50 is 8.32e-09 M and the maximal response (Emax) is 106%. Besides, the ED50 in the data set on rats (Route PO) was determined as 1.99 mg/kg.
Turning to `CCOc1cc(N2C[C@H](C)n3ncc(-c4ccnc(C)c4)c3C2=O)ccc1Cl` [compound 18], the melting point came out at 98.5 °C. In addition, at human mGlu2 receptor, the IC50 is 5.25e-08 M and the Emax amounted to 102%. The ED50 with rats (Route PO) is ≥ 10 mg/kg.
For `Cc1cc(-c2cnn3c2C(=O)N(c2ccc(SC(F)(F)F)cc2)C[C@@H]3C)ccn1` [compound 236], at human mGlu2 receptor, the IC50 is 7.24e-09 M and the Emax was 105%. The ED50 in the data set with rats (Route PO) is > 2.5 mg/kg.
In the same order, the values of `Cc1cc(-c2cnn3c2C(=O)N(c2ccc(C(F)(F)F)c(Cl)c2)C[C@@H]3C)cc(C)n1` [compound 43] are 2.88e-09 M, 107% and 1.26 mg/kg.
Taken in the same sequence, the figures for `Cc1cc(-c2cnn3c2C(=O)N(c2ccc(Cl)c(Cl)c2)C[C@@H]3C)cc(C)n1` [compound 47] were 6.46e-09 M, 105% and 1.99 mg/kg.
For `Cc1cc(-c2cnn3c2C(=O)N(c2ccc(C(F)(F)F)c(F)c2)C[C@@H]3C)ccn1` [compound 10], on human mGlu2 receptor, the IC50 is 1.17e-08 M and the maximal response (Emax) was 104%. Also, the ED50 in the data set with rats (Route PO) is 0.79 mg/kg.
Regarding `Cc1cc(-c2cnn3c2C(=O)N(c2ccc(Cl)c(Cl)c2)C[C@@H]3C)ccn1` [compound 6], on human mGlu2 receptor, the IC50 was 5.01e-09 M and the Emax worked out at 106%. Besides, the ED50 with rats (Route PO) came out at 0.8 mg/kg.
`COc1cc(-c2cnn3c2C(=O)N(c2ccc(Cl)c(Cl)c2)C[C@@H]3C)cc(C)n1` [compound 146]: the melting point came out at 166.8 °C. Also, on human mGlu2 receptor, the IC50 was 1.66e-08 M and the Emax was 105%.
In the case of `Cc1cc(-c2cnn3c2C(=O)N(c2ccc(C(F)(F)F)c(Cl)c2)C[C@@H]3C)ccn1` [compound 3], on human mGlu2 receptor, the IC50 is 1.78e-09 M and the Emax came to 106%. Further, the ED50 with rats (Route PO) was 1.99 mg/kg.
`COc1cc(N2C[C@H](C)n3ncc(-c4cc(C)nc(C)c4)c3C2=O)ccc1C(F)(F)F` [compound 51] gave a melting point of 93 °C. In addition, on human mGlu2 receptor, the IC50 is 1.1e-08 M and the Emax turned out to be 104%.
Regarding `Cc1cc(-c2cnn3c2C(=O)N(c2ccc(Cl)c(OC(F)(F)F)c2)C[C@@H]3C)ccn1` [compound 169], the melting point came out at 64.7 °C. Besides, on human mGlu2 receptor, the IC50 was 6.03e-09 M and the maximal response (Emax) was 105%.
In the same order, the values of `Cc1cc(-c2cnn3c2C(=O)N(c2ccc(C(F)(F)F)cc2)CC3CF)ccn1` (stereo not shown) [compound 52, 7-(Fluoromethyl)-3-(2-methyl-4-pyridyl)-5-[4-(trifluoromethyl)phenyl]-6,7-dihydropyrazolo[1,5-a]pyrazin-4-one] are > 300 °C, 1.05e-08 M and 107%.
In the same order, the values of `COc1nc(N2C[C@H](C)n3ncc(-c4ccnc(C)c4)c3C2=O)ccc1C(F)(F)F` [compound 207] are 147.6 °C, 3.8e-09 M and 109%.
In the same order, the values of `Cc1cc(-c2cnn3c2C(=O)N(c2ccc(Cl)cc2F)C[C@@H]3C)ccn1` [compound 30] are 78.6 °C, 2.57e-07 M and 104%.

For the origin of these results see patent publication US10106542B2, “Substituted 6,7-dihydropyrazolo[1,5-a]pyrazines as negative allosteric modulators of mGluR2 receptors” (Janssen Pharmaceutica NV, priority 2013, dated 2018).
